According to ChEMBL document CHEMBL6071126, “Recent advances in the chemistry and biology of oleanolic acid and its derivatives” (Eur J Med Chem, 2024):
Values after ≈ are worked out from the molar mass of the structure shown.

Assays:
HepG2 [1] = experiment: Antiproliferative activity against human HepG2 cells assessed as reduction in cell growth incubated for 72 hrs by MTT assay; format: functional, cell-based; conditions: HepG2, 72 h
HeLa = experiment: Cytotoxicity against human HeLa cells assessed as reduction in cell viability incubated for 48 hrs by MTT assay; format: functional, cell-based
[2] = Potency index, ratio of OA IC50 to test compound IC50 for anti-inflammatory activity in LPS-induced mouse BV-2 cells assessed as inhibition of NO production; format: functional
[3] = Inhibition of Clostridium histolyticum Collagenase using DQ gelatin as substrate measured after 30 mins by fluorescence based microplate reader analysis; set-up: species or system Hathewaya histolytica
Hathewaya histolytica = experiment: Inhibition of Clostridium histolyticum Collagenase at 250 ug/ml relative to control; conditions: dose 250.0 µg/ml
Alpha glucosidase = Alpha glucosidase (Homo sapiens, UniProt O43451+P10253+P14410+Q2M2H8); experiment: Inhibition of Alpha glucosidase (unknown origin); format: protein assay
PC-3 = experiment: Cytotoxicity against human PC-3 cells assessed as reduction in cell viability incubated for 72 hrs by MTT assay; format: functional, cell-based; conditions: PC-3, 72 h
MCF7 = experiment: Cytotoxicity against human MCF7 cells assessed as reduction in cell viability incubated for 72 hrs by MTT assay; conditions: MCF7, 72 h
BGC-823 = experiment: Cytotoxicity against human BGC-823 cells assessed as reduction in cell viability incubated for 72 hrs by MTT assay; format: functional, cell-based; conditions: BGC-823, 72 h
A549 = experiment: Cytotoxicity against human A549 cells assessed as reduction in cell viability incubated for 72 hrs by MTT assay; conditions: A549, 72 h
HepG2 [4] = experiment: Cytotoxicity against human HepG2 cells assessed as reduction in cell viability incubated for 72 hrs by MTT assay; conditions: HepG2, 72 h
[5] = Aqueous solubility of compound; format: physicochemical
[6] = Oral bioavailability in rat; format: ADME, organism-based; conditions: in vivo
[7] = Apparent permeability across apical to basolateral side in human Caco-2 cells at 10 uM incubated for 90 mins at pH 7.4 by LC/MS analysis; format: ADME, cell-based; conditions: Caco-2, pH 7.4

Which IC50 (HepG2 [1]) does the source give for `CON(C[C@]12CCC(C)(C)CC1C1=CCC3[C@@]4(C)CC[C@H](O)C(C)(C)C4CC[C@@]3(C)[C@]1(C)CC2)[C@@H]1O[C@H](CO)[C@@H](O)[C@H](O)[C@H]1O` (stereo partly specified) here?
The IC50 was 2100 nM.

Which IC50 (HeLa) does the source give for `Cc1ccccc1COC(=O)[C@]12CCC(C)(C)CC1C1=CCC3[C@@]4(C)CC[C@H](OC(=O)/C=C/c5ccc([N+](=O)[O-])cc5)C(C)(C)C4CC[C@@]3(C)[C@]1(C)CC2` (stereo partly specified) here?
The IC50 was 1350 nM.

With `COC(=O)[C@]12CCC(C)(C)CC1C1=CC(=O)C3[C@@]4(C)Cc5c([nH]c6ccc(C#N)cc56)C(C)(C)C4CC[C@@]3(C)[C@]1(C)CC2` (stereo partly specified) as the compound, how does the “Ratio IC50” value [2] read?
Its value is 1.93.

Which results are given for `CC(C)[C@H](NC(=O)[C@H](CCCCN)NC(=O)[C@]12CCC(C)(C)CC1C1=CCC3[C@@]4(C)CC[C@H](O)C(C)(C)C4CC[C@@]3(C)[C@]1(C)CC2)C(=O)N[C@@H](CCCCN)C(=O)O` (stereo partly specified)?
IC50 [3]: 48.8 µg/mL (≈ 60.1 µM); inhibition (Hathewaya histolytica): 100%

For `CC1(C)CC[C@]2(C(=O)C(=O)O)CC[C@]3(C)C(=CCC4[C@@]5(C)Cc6cnn(-c7ccc(Cl)cc7)c6C(C)(C)C5CC[C@]43C)C2C1` (stereo partly specified), which IC50 (Alpha glucosidase) is on record?
The IC50 was 2640 nM.

Which “Ratio IC50” value [2] does the source give for `COC(=O)[C@]12CCC(C)(C)CC1C1=CC(=O)C3[C@@]4(C)Cc5c([nH]c6cc(F)cc(F)c56)C(C)(C)C4CC[C@@]3(C)[C@]1(C)CC2` (stereo partly specified) here?
Its value is 2.41.

For `CC1(C)CC[C@]2(C(=O)OCc3ccccc3Cl)CC[C@]3(C)C(=CCC4[C@@]5(C)CC[C@H](O)C(C)(C)C5CC[C@]43C)C2C1` (stereo partly specified), which IC50 (HeLa) is on record?
Its IC50 is 1550 nM.

For `O=c1[nH]cc(F)c(=O)[nH]1` [FLUOROURACIL], which IC50 (PC-3) is on record?
The IC50 was less than 1000 nM.

What about the IC50 (MCF7) of the same compound?
Its IC50 is less than 1000 nM.

And the IC50 (BGC-823)?
The IC50 was less than 1000 nM.

What about the IC50 (A549) of the same compound?
The IC50 was less than 1000 nM.

What about the IC50 (HepG2 [4]) of the same compound?
Its IC50 is less than 1000 nM.

With `CC1(C)CC[C@]2(C(=O)O)CC[C@]3(C)C(=CC[C@@H]4[C@@]5(C)CC[C@H](O)C(C)(C)[C@@H]5CC[C@]43C)[C@@H]2C1` [OLEANOLIC_ACID] as the compound, how does the solubility [5] read?
The solubility was less than 1 µg/mL.

And the bioavailability [6]?
Its bioavailability is 0.7%.

What about the Papp A→B at 1.5 h, 10 µM [7] of the same compound?
The Papp A→B at 1.5 h, 10 µM was 1.1 ×10⁻⁶ cm/s.
